{"source": "paper PMC5428509", "about": "“Irreversible inhibition of BTK kinase by a novel highly selective inhibitor CHMFL-BTK-11 suppresses inflammatory response in rheumatoid arthritis model” (Scientific Reports, 2017)", "assay_in_all_cases": "biochemical", "parameters_in_all_cases": "KinomeScan competition binding panel (DiscoveRx), percent of control at 1 uM", "settings_in_all_cases": "read-out: Percent Control", "key": {"[1]": {"target": "ACVR2B (Homo sapiens, UniProt Q13705)", "sequence (Q13705 whole entry)": "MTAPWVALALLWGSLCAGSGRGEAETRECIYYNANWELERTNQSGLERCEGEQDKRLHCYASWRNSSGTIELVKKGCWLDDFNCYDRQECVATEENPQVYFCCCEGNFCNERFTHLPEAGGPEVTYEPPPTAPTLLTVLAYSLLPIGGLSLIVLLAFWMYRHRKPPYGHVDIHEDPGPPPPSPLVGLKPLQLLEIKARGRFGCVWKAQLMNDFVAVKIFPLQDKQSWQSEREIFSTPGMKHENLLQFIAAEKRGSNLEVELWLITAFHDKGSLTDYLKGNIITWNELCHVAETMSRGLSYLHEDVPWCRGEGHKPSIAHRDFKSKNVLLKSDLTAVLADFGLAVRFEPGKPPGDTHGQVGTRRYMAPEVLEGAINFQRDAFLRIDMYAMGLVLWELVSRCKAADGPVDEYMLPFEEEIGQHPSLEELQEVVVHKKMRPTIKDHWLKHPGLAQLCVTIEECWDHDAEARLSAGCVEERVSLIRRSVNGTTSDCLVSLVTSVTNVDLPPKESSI", "in_short": "(§1)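 Selectivity profiled across 456 kinases/mutants by KinomeScan binding technology.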"}, "[2]": {"target": "FRK (Homo sapiens, UniProt P42685)", "in_short": "as §1"}, "[3]": {"target": "NEK9 (Homo sapiens, UniProt Q8TD19)", "sequence (Q8TD19 whole entry)": "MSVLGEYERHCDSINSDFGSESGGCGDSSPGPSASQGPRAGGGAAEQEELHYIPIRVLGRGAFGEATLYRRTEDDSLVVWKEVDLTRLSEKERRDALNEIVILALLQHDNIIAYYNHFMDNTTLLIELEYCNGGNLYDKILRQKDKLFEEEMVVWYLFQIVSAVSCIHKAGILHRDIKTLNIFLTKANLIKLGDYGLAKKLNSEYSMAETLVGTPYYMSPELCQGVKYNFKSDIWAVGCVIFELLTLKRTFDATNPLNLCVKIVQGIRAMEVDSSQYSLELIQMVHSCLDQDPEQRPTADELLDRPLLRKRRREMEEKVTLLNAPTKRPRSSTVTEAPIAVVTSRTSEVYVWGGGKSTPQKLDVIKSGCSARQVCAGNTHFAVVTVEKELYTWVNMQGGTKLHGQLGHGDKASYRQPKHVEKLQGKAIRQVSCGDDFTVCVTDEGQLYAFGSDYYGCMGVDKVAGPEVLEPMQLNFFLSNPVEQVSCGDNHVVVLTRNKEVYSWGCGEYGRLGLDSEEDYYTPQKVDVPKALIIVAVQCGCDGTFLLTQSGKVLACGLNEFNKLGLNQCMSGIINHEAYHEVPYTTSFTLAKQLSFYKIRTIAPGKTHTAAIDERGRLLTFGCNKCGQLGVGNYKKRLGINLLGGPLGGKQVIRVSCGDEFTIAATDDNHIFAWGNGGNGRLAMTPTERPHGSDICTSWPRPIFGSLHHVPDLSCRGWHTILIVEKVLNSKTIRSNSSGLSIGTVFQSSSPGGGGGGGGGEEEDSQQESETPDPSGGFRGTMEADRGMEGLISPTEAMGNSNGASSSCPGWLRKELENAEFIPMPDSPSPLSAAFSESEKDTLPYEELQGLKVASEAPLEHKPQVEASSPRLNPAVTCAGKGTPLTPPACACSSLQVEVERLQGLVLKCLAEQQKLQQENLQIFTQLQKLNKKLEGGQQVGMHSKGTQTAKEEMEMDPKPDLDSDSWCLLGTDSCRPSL", "in_short": "as §1"}, "[4]": {"target": "T1, MEK3 (Homo sapiens, UniProt P46734)", "T1 construct": "gene MAP2K3", "in_short": "as §1"}, "[5]": {"target": "CSK (Homo sapiens, UniProt P41240)", "in_short": "as §1"}, "[6]": {"target": "PRKCH (Homo sapiens, UniProt P24723)", "in_short": "as §1"}, "[7]": {"target": "T2, JAK1(JH1domain-catalytic) (Homo sapiens, UniProt P23458)", "T2 construct": "JH1domain-catalytic", "in_short": "as §1"}, "[8]": {"target": "T3, PFTAIRE2 (Homo sapiens, UniProt Q96Q40)", "T3 construct": "gene CDK15", "in_short": "as §1"}, "[9]": {"target": "CAMK2A (Homo sapiens, UniProt Q9UQM7)", "sequence (Q9UQM7 whole entry)": "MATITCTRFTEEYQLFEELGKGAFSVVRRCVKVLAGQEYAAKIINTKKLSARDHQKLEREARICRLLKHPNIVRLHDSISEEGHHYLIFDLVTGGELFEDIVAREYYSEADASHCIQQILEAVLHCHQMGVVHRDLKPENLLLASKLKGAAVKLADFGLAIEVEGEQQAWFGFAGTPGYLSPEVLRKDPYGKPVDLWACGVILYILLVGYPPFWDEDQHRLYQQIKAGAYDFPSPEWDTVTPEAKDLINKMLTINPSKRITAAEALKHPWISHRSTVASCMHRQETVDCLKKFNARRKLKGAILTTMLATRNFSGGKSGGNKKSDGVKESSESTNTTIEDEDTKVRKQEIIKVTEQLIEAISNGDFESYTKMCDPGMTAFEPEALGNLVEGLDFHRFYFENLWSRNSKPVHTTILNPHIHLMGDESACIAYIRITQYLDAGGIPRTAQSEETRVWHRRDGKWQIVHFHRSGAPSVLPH", "in_short": "as §1"}, "[10]": {"target": "PIK3CA(I800L) (Homo sapiens, UniProt P42336, I800L)", "in_short": "as §1"}, "[11]": {"target": "CLK1 (Homo sapiens, UniProt P49759)", "sequence (P49759 whole entry)": "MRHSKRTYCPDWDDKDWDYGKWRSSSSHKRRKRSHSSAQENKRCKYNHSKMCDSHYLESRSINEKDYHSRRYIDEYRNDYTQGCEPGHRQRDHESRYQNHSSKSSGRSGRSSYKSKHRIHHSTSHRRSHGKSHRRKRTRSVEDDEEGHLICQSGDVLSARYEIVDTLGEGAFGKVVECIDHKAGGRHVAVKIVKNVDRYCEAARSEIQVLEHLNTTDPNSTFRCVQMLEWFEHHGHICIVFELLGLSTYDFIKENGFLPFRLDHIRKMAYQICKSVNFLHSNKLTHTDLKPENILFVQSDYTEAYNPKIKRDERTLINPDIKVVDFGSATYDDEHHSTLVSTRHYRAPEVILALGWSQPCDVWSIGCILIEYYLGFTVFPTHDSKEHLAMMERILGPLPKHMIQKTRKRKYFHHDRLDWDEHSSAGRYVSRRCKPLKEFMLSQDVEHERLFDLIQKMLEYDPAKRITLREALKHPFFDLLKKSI", "in_short": "as §1"}, "[12]": {"target": "ERBB3 (Homo sapiens, UniProt P21860)", "in_short": "as §1"}, "[13]": {"target": "NEK10 (Homo sapiens, UniProt Q6ZWH5)", "in_short": "as §1"}, "[14]": {"target": "DAPK3 (Homo sapiens, UniProt O43293)", "in_short": "as §1"}, "[15]": {"target": "MAP4K4 (Homo sapiens, UniProt O95819)", "in_short": "as §1"}, "[16]": {"target": "ERBB4 (Homo sapiens, UniProt Q15303)", "in_short": "as §1"}, "[17]": {"target": "T4, CDC2L1 (Homo sapiens, UniProt P21127)", "T4 construct": "gene CDK11B", "in_short": "as §1"}, "[18]": {"target": "EPHA3 (Homo sapiens, UniProt P29320)", "sequence (P29320 whole entry)": "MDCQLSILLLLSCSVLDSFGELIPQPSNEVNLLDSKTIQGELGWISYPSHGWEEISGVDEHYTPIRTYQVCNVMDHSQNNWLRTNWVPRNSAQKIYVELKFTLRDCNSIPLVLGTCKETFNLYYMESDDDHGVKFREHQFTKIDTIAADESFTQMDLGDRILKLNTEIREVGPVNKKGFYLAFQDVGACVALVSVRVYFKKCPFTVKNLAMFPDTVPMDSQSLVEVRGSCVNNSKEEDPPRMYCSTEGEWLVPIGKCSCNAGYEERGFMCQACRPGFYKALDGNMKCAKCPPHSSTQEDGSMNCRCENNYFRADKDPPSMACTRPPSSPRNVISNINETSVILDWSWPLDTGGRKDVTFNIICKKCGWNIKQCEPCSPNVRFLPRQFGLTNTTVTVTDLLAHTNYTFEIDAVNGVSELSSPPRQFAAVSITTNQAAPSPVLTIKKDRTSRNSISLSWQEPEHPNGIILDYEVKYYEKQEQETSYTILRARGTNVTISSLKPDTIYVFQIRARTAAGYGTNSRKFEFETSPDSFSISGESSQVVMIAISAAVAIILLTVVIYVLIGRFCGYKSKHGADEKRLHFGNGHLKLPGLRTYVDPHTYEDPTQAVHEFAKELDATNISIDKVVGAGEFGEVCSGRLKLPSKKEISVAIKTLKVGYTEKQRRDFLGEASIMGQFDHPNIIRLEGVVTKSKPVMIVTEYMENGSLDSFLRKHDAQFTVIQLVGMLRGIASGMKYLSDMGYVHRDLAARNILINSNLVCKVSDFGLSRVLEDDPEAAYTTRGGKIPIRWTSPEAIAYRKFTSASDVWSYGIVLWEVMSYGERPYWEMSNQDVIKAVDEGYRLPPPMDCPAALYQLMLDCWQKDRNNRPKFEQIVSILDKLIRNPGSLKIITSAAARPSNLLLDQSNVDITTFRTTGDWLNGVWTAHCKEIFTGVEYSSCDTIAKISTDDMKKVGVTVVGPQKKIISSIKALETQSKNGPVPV", "in_short": "as §1"}, "[19]": {"target": "PLK1 (Homo sapiens, UniProt P53350)", "in_short": "as §1"}, "[20]": {"target": "T5, MST4 (Homo sapiens, UniProt Q9P289)", "T5 construct": "gene STK26", "in_short": "as §1"}, "[21]": {"target": "CIT (Homo sapiens, UniProt O14578)", "in_short": "as §1"}, "[22]": {"target": "T6, MLK2 (Homo sapiens, UniProt Q02779)", "T6 construct": "gene MAP3K10", "in_short": "as §1"}, "[23]": {"target": "GSK3B (Homo sapiens, UniProt P49841)", "sequence (P49841 whole entry)": "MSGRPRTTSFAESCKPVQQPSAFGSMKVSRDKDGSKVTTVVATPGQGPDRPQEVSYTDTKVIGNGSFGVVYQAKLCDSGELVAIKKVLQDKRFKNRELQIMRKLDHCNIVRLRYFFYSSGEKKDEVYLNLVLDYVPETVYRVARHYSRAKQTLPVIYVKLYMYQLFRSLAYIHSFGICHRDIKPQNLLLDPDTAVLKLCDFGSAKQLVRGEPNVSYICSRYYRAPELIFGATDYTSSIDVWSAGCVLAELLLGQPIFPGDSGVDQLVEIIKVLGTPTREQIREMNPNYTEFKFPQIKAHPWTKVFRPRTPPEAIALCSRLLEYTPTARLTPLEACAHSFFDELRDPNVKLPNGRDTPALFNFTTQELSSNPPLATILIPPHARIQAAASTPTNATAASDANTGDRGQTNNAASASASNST", "in_short": "as §1"}, "[24]": {"target": "T7, MEK2 (Homo sapiens, UniProt P36507)", "T7 construct": "gene MAP2K2", "in_short": "as §1"}, "[25]": {"target": "EGFR(L858R,T790M) (Homo sapiens, UniProt P00533, L858R/T790M)", "sequence (P00533 whole entry T790M/L858R)": "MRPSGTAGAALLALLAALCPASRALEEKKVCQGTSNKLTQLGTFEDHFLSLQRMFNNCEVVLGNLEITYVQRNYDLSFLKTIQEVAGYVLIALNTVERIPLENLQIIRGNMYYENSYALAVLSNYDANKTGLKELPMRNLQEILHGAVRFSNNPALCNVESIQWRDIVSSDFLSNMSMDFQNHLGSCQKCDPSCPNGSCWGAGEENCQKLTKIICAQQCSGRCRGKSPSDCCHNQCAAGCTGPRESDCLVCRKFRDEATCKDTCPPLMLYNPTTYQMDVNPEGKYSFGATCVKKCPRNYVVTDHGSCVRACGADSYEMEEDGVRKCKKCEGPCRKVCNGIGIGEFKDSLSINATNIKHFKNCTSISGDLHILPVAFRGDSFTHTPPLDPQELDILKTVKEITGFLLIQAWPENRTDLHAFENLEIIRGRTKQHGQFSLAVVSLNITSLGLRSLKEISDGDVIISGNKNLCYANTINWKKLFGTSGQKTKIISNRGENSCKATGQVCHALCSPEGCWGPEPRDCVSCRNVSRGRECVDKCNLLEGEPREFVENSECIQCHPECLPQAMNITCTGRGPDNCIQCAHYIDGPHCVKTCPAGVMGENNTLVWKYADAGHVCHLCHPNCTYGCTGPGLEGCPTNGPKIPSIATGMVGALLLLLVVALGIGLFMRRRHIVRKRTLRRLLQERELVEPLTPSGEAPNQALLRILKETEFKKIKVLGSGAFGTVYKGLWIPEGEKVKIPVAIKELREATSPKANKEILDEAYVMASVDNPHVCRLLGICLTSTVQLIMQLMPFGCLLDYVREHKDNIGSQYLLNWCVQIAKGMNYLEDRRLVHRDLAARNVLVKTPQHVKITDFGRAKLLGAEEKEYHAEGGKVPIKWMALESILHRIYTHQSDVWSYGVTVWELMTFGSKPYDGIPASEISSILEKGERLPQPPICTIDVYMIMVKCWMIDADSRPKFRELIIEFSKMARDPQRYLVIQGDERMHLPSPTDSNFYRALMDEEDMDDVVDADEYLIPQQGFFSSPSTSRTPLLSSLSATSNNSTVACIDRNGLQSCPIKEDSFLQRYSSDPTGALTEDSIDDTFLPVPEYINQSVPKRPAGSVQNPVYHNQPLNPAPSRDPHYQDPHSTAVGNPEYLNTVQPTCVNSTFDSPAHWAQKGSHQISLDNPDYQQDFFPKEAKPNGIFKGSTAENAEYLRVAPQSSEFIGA", "in_short": "as §1"}}, "data": [{"smiles": "C=CC(=O)Nc1cc(-n2c(=O)ccc3cnc4ccc(-n5cccn5)cc4c32)ccc1C", "note": "[CHMFL-BTK-11]", "values": [{"measurement": "remaining binding at 1 µM", "setting": "[1]", "value": 95, "unit": "%"}, {"measurement": "remaining binding at 1 µM", "setting": "[2]", "value": 100, "unit": "%"}, {"measurement": "remaining binding at 1 µM", "setting": "[3]", "value": 100, "unit": "%"}, {"measurement": "remaining binding at 1 µM", "setting": "[4]", "value": 86, "unit": "%"}, {"measurement": "remaining binding at 1 µM", "setting": "[5]", "value": 100, "unit": "%"}, {"measurement": "remaining binding at 1 µM", "setting": "[6]", "value": 84, "unit": "%"}, {"measurement": "remaining binding at 1 µM", "setting": "[7]", "value": 100, "unit": "%"}, {"measurement": "remaining binding at 1 µM", "setting": "[8]", "value": 100, "unit": "%"}, {"measurement": "remaining binding at 1 µM", "setting": "[9]", "value": 100, "unit": "%"}, {"measurement": "remaining binding at 1 µM", "setting": "[10]", "value": 62, "unit": "%"}, {"measurement": "remaining binding at 1 µM", "setting": "[11]", "value": 92, "unit": "%"}, {"measurement": "remaining binding at 1 µM", "setting": "[12]", "value": 90, "unit": "%"}, {"measurement": "remaining binding at 1 µM", "setting": "[13]", "value": 97, "unit": "%"}, {"measurement": "remaining binding at 1 µM", "setting": "[14]", "value": 100, "unit": "%"}, {"measurement": "remaining binding at 1 µM", "setting": "[15]", "value": 97, "unit": "%"}, {"measurement": "remaining binding at 1 µM", "setting": "[16]", "value": 91, "unit": "%"}, {"measurement": "remaining binding at 1 µM", "setting": "[17]", "value": 100, "unit": "%"}, {"measurement": "remaining binding at 1 µM", "setting": "[18]", "value": 97, "unit": "%"}, {"measurement": "remaining binding at 1 µM", "setting": "[19]", "value": 99, "unit": "%"}, {"measurement": "remaining binding at 1 µM", "setting": "[20]", "value": 96, "unit": "%"}, {"measurement": "remaining binding at 1 µM", "setting": "[21]", "value": 98, "unit": "%"}, {"measurement": "remaining binding at 1 µM", "setting": "[22]", "value": 94, "unit": "%"}, {"measurement": "remaining binding at 1 µM", "setting": "[23]", "value": 100, "unit": "%"}, {"measurement": "remaining binding at 1 µM", "setting": "[24]", "value": 92, "unit": "%"}, {"measurement": "remaining binding at 1 µM", "setting": "[25]", "value": 42, "unit": "%"}]}]}
